Test results from the NIST ThermoML archive (doi:10.1021/acs.jced.9b00171).

Columns and labels:
[1] = refractive index (Na D-line) (dimensionless); wn = mass fraction of the nth substance listed; settings: 101.3 kPa, Liquid, Standard Abbe refractometry
[2] = wn = mass fraction of the nth substance listed; settings: 101.3 kPa, Liquid, Oscillating disk viscometry

CNCCO [2-(methylamino)ethanol] + O
Settings | refractive index, [1] | viscosity, [2] [mPa·s]
293.15 K, w1 = 0.05 | 1.3421 | 1.31
293.15 K, w1 = 0.1 | 1.3452 | 1.68
293.15 K, w1 = 0.15 | 1.3484 | 2.38
293.15 K, w1 = 0.2 | 1.3522 | 2.66
293.15 K, w1 = 0.25 | 1.3568 | 3.4
293.15 K, w1 = 0.3 | 1.3624 | 4.22
298.15 K, w1 = 0.05 | 1.3414 | 1.1
298.15 K, w1 = 0.1 | 1.3444 | 1.42
298.15 K, w1 = 0.15 | 1.3476 | 2.02
298.15 K, w1 = 0.2 | 1.3513 | 2.17
298.15 K, w1 = 0.25 | 1.3558 | 2.74
298.15 K, w1 = 0.3 | 1.3614 | 3.52
303.15 K, w1 = 0.05 | 1.3405 | 0.99
303.15 K, w1 = 0.1 | 1.3435 | 1.22
303.15 K, w1 = 0.15 | 1.3467 | 1.74
303.15 K, w1 = 0.2 | 1.3502 | 1.83
303.15 K, w1 = 0.25 | 1.3547 | 2.32
303.15 K, w1 = 0.3 | 1.3602 | 2.96
308.15 K, w1 = 0.05 | 1.3396 | 0.88
308.15 K, w1 = 0.1 | 1.3426 | 1.05
308.15 K, w1 = 0.15 | 1.3456 | 1.42
308.15 K, w1 = 0.2 | 1.349 | 1.52
308.15 K, w1 = 0.25 | 1.3534 | 1.96
308.15 K, w1 = 0.3 | 1.3588 | 2.52
313.15 K, w1 = 0.05 | 1.3386 | 0.79
313.15 K, w1 = 0.1 | 1.3416 | 0.94
313.15 K, w1 = 0.15 | 1.3445 | 1.22
313.15 K, w1 = 0.2 | 1.3478 | 1.32
313.15 K, w1 = 0.25 | 1.352 | 1.71
313.15 K, w1 = 0.3 | 1.3573 | 2.2
318.15 K, w1 = 0.05 | 1.3375 | 0.72
318.15 K, w1 = 0.1 | 1.3405 | 0.84
318.15 K, w1 = 0.15 | 1.3434 | 1.04
318.15 K, w1 = 0.2 | 1.3465 | 1.19
318.15 K, w1 = 0.25 | 1.3505 | 1.49
318.15 K, w1 = 0.3 | 1.3558 | 1.92
323.15 K, w1 = 0.05 | 1.3364 | 0.65
323.15 K, w1 = 0.1 | 1.3394 | 0.75
323.15 K, w1 = 0.15 | 1.3421 | 0.93
323.15 K, w1 = 0.2 | 1.3451 | 1.06
323.15 K, w1 = 0.25 | 1.349 | 1.29
323.15 K, w1 = 0.3 | 1.3542 | 1.65
328.15 K, w1 = 0.05 | 1.3352 | 0.58
328.15 K, w1 = 0.1 | 1.3381 | 0.67
328.15 K, w1 = 0.15 | 1.3406 | 0.83
328.15 K, w1 = 0.2 | 1.3436 | 0.94
328.15 K, w1 = 0.25 | 1.3474 | 1.12
328.15 K, w1 = 0.3 | 1.3524 | 1.41
333.15 K, w1 = 0.05 | 1.334 | 0.52
333.15 K, w1 = 0.1 | 1.3368 | 0.6
333.15 K, w1 = 0.15 | 1.3391 | 0.74
333.15 K, w1 = 0.2 | 1.342 | 0.83
333.15 K, w1 = 0.25 | 1.3456 | 0.99
333.15 K, w1 = 0.3 | 1.3504 | 1.2

NCCNCCO [N-(2-aminoethyl)ethanolamine] + O
Settings | refractive index, [1] | viscosity, [2] [mPa·s]
293.15 K, w1 = 0.05 | 1.3406 | 1.2
293.15 K, w1 = 0.1 | 1.3452 | 1.6
293.15 K, w1 = 0.15 | 1.351 | 2.02
293.15 K, w1 = 0.2 | 1.3582 | 2.58
293.15 K, w1 = 0.25 | 1.366 | 3.47
293.15 K, w1 = 0.3 | 1.3752 | 4.73
298.15 K, w1 = 0.05 | 1.3401 | 1.11
298.15 K, w1 = 0.1 | 1.3446 | 1.36
298.15 K, w1 = 0.15 | 1.3504 | 1.74
298.15 K, w1 = 0.2 | 1.3575 | 2.22
298.15 K, w1 = 0.25 | 1.3652 | 2.98
298.15 K, w1 = 0.3 | 1.3744 | 3.95
303.15 K, w1 = 0.05 | 1.3394 | 0.95
303.15 K, w1 = 0.1 | 1.3438 | 1.18
303.15 K, w1 = 0.15 | 1.3496 | 1.48
303.15 K, w1 = 0.2 | 1.3567 | 1.89
303.15 K, w1 = 0.25 | 1.3643 | 2.37
303.15 K, w1 = 0.3 | 1.3735 | 3.32
308.15 K, w1 = 0.05 | 1.3387 | 0.85
308.15 K, w1 = 0.1 | 1.343 | 1.06
308.15 K, w1 = 0.15 | 1.3487 | 1.32
308.15 K, w1 = 0.2 | 1.3558 | 1.63
308.15 K, w1 = 0.25 | 1.3633 | 2.08
308.15 K, w1 = 0.3 | 1.3724 | 2.61
313.15 K, w1 = 0.05 | 1.3378 | 0.76
313.15 K, w1 = 0.1 | 1.3421 | 0.94
313.15 K, w1 = 0.15 | 1.3476 | 1.17
313.15 K, w1 = 0.2 | 1.3548 | 1.41
313.15 K, w1 = 0.25 | 1.3622 | 1.76
313.15 K, w1 = 0.3 | 1.3712 | 2.19
318.15 K, w1 = 0.05 | 1.3368 | 0.69
318.15 K, w1 = 0.1 | 1.341 | 0.84
318.15 K, w1 = 0.15 | 1.3464 | 1.03
318.15 K, w1 = 0.2 | 1.3536 | 1.24
318.15 K, w1 = 0.25 | 1.361 | 1.53
318.15 K, w1 = 0.3 | 1.3698 | 1.86
323.15 K, w1 = 0.05 | 1.3358 | 0.64
323.15 K, w1 = 0.1 | 1.3398 | 0.77
323.15 K, w1 = 0.15 | 1.3451 | 0.92
323.15 K, w1 = 0.2 | 1.3523 | 1.08
323.15 K, w1 = 0.25 | 1.3597 | 1.28
323.15 K, w1 = 0.3 | 1.3682 | 1.59
328.15 K, w1 = 0.05 | 1.3347 | 0.59
328.15 K, w1 = 0.1 | 1.3385 | 0.7
328.15 K, w1 = 0.15 | 1.3436 | 0.82
328.15 K, w1 = 0.2 | 1.3508 | 0.95
328.15 K, w1 = 0.25 | 1.3582 | 1.11
328.15 K, w1 = 0.3 | 1.3664 | 1.35
333.15 K, w1 = 0.05 | 1.3335 | 0.55
333.15 K, w1 = 0.1 | 1.3371 | 0.64
333.15 K, w1 = 0.15 | 1.342 | 0.74
333.15 K, w1 = 0.2 | 1.3491 | 0.87
333.15 K, w1 = 0.25 | 1.3566 | 1.02
333.15 K, w1 = 0.3 | 1.3648 | 1.2
